One data set has as its target Cholinesterase (Homo sapiens, UniProt P06276).
Data set [1] deals with Acetylcholinesterase (Electrophorus electricus, UniProt O42275).
Description: Inhibition of electric eel AChE by Rappaport method
Data set [2] addresses T1, Acetylcholinesterase (Homo sapiens, UniProt P22303).
Description: Inhibition of human serum AChE by Ellman's method
A further data set is described as follows: in vitro. The note with it: pig, PAMPA. (PAMPA measures passive passage across an artificial lipid membrane.)
Data set [3] has as its target T1, Acetylcholinesterase. The note with it: 100 uM.
Description: Inhibition of human AChE-induced amyloid beta (1-40) aggregation at 100 uM after 24 hrs by thioflavin T fluorescence method
Data set [4] in a line: Inhibition of amyloid beta (1-42) self-aggregation at 1:1 drug to amyloid beta (1 to 42) ratio after 24 hrs by thioflavin T fluorescence method. The note with it: concentration not given here.

The text below walks through data of ChEMBL document CHEMBL1138487, “Tacripyrines, the first tacrine-dihydropyridine hybrids, as multitarget-directed ligands for the treatment of Alzheimer's disease” (J Med Chem, 2009).

SMILES strings stand for the structures.

Cholinesterase, sequence (P06276 whole entry): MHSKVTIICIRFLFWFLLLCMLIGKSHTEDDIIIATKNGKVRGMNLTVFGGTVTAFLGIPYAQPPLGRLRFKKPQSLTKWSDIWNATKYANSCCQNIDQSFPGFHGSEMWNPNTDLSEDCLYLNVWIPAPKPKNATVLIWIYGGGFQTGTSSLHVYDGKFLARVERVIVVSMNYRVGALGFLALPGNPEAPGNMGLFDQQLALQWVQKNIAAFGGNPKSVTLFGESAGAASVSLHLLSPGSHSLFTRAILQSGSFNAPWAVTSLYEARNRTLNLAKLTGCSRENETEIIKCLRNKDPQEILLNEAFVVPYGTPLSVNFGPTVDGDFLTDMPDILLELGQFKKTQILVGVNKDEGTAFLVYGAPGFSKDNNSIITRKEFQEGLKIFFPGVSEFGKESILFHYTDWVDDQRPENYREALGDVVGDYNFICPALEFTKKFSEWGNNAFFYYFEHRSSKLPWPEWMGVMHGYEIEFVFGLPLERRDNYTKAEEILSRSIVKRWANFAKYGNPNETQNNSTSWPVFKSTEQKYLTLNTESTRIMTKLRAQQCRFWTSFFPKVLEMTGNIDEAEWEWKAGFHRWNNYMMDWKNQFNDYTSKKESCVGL
T1 sequence (P22303 whole entry): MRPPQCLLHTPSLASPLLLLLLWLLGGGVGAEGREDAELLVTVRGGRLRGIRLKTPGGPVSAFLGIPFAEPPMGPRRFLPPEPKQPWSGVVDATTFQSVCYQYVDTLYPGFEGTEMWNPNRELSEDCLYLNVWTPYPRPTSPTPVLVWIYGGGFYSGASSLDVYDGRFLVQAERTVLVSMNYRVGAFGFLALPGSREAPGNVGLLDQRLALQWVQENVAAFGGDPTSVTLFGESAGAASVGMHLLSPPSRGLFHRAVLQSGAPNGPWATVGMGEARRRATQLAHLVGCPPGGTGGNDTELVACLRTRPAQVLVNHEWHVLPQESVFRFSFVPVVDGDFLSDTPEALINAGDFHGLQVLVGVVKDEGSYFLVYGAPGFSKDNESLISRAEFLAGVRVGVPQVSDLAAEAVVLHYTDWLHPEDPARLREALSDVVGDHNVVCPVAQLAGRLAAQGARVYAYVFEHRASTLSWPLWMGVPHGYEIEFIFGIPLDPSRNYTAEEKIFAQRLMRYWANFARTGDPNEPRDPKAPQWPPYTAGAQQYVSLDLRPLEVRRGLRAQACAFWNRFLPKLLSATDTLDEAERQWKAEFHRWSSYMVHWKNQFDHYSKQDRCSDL
Acetylcholinesterase (Electrophorus electricus, UniProt O42275), sequence (O42275 whole entry): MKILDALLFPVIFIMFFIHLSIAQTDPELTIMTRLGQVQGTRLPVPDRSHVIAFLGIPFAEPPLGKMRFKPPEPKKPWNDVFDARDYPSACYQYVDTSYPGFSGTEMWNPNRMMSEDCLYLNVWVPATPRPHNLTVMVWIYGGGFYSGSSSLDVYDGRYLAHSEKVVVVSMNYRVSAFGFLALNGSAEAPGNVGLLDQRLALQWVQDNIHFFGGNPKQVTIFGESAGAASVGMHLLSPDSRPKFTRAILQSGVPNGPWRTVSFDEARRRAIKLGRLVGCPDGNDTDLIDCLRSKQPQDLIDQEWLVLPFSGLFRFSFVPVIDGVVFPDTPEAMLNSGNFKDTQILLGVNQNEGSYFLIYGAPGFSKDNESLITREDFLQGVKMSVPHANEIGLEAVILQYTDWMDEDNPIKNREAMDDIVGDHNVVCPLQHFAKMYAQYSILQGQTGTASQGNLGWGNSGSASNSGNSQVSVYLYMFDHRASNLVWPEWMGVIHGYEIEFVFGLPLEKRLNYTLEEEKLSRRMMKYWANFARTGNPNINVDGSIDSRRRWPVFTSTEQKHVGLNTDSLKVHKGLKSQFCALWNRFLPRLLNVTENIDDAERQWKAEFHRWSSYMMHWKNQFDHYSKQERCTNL
Description for in vitro: Permeability across porcine brain lipid coated polyvinylidene fluoride membrane by PAMPA

Turning to `CCOC(=O)C1=C(C)Nc2nc3c(c(N)c2C1c1ccncc1)CCCC3` (stereo unspecified), the IC50 (in general, the point on the concentration scale where inhibition reaches its midpoint) at Cholinesterase is > 100000 nM; on Acetylcholinesterase [1], 220 nM; at Acetylcholinesterase [2] it was 223 nM.

Take `CN(C)CCCN1c2ccccc2Sc2ccccc21` [PROMAZINE]: the Papp (usually a coefficient for how fast a substance crosses the barrier) in the data set “in vitro” was found to be 7.7 ×10⁻⁶ cm/s.

Consider `CCOC(=O)C1=C(C)Nc2nc3c(c(N)c2C1c1cccnc1)CCCC3` (stereo unspecified), for which the IC50 is > 100000 nM against Cholinesterase, 47 nM at Acetylcholinesterase [1] and 158 nM at Acetylcholinesterase [2].

Compound `CCn1cc(C(=O)O)c(=O)c2cc(F)c(N3CCNCC3)nc21` [ENOXACIN] displayed a Papp in the data set “in vitro” of 0.6 ×10⁻⁶ cm/s.

Regarding `CCn1cc(C(=O)O)c(=O)c2cc(F)c(N3CCNC(C)C3)c(F)c21` (stereo unspecified) [LOMEFLOXACIN], in “in vitro”, the Papp is 0.5 ×10⁻⁶ cm/s.

In turn, `C[C@]12CCC(=O)C=C1CC[C@@H]1[C@@H]2[C@@H](O)C[C@]2(C=O)[C@@H](C(=O)CO)CC[C@@H]12` [ALDOSTERONE] had a Papp in “in vitro” of 0.6 ×10⁻⁶ cm/s.

Turning to `CCOC(=O)C1=C(C)Nc2nc3c(c(N)c2C1c1ccc(OC)c(OC)c1)CCCC3` (stereo unspecified), the IC50 was > 100000 nM at Cholinesterase, 103 nM on Acetylcholinesterase [1] and 45 nM against Acetylcholinesterase [2].

In the case of `COc1ccc(CCN2CCC(Nc3nc4ccccc4n3Cc3ccc(F)cc3)CC2)cc1` [ASTEMIZOLE], the Papp in the data set “in vitro” was found to be 6.1 ×10⁻⁶ cm/s.

As to `CN1C(C(=O)Nc2ccccn2)=C(O)c2ccccc2S1(=O)=O` [PIROXICAM], the Papp in “in vitro” worked out at 0.4 ×10⁻⁶ cm/s.

`CC(=O)[C@H]1CC[C@H]2[C@@H]3CCC4=CC(=O)CC[C@]4(C)[C@H]3CC[C@]12C` [PROGESTERONE] displayed a Papp in the data set “in vitro” of 6.6 ×10⁻⁶ cm/s.

On to `CCOC(=O)C1=C(C)Nc2nc3c(c(N)c2C1c1ccc(OC)cc1)CCCC3` (stereo unspecified), for which the values for the inhibition (on Acetylcholinesterase [3]; in data set [4]) were 30.7% and 34.9%, respectively.

For the compound `CCOC(=O)C1=C(C)Nc2nc3c(c(N)c2C1c1ccc(-c2ccccc2)cc1)CCCC3` (stereo unspecified), the figures for the 50% inhibitory concentration (IC50) at Cholinesterase, on Acetylcholinesterase [1] and against Acetylcholinesterase [2] were > 100000 nM, 90 nM and 71 nM, respectively.
